Converted amounts (≈) assume the structure as drawn.
Tests used:
[1] = Anti-settlement assay with barnacle cyprid larvae (settlement inhibition and mortality, 48 h); assay type: in vivo, Balanus amphitrite; conditions: in vivo, other: larvae immersed in seawater containing the compound; Balanus amphitrite cyprid larvae, 48 h incubation; read-out: LC50 (larval mortality)
Protocol: (§1) Compounds dissolved in DMSO were sequentially administered to the wells, starting with a concentration of 25 µg/mL and proceeding with serial half-logarithmic dilutions. The volume of the compound in each well was maintained at […], with seawater as the blank control, DMSO as the negative control, and SeaNine 211 serving as the positive control. Utilizing a stereo microscope, a 1 mL micropipette was employed to introduce 995 μL of seawater and between 21 and 25 cyprid larvae into each well of a 24-well plate. Subsequently, the plates were incubated in a darkened, temperature-controlled environment for 48 h. […] This observation facilitated the calculation of mortality and settlement rates of the barnacle cyprids, crucial for assessing the antifouling properties of the compounds. The determination of EC50 values for the inhibition of barnacle larval attachment and LC50 values for larval mortality offered an evaluation of the compounds’ efficacy in deterring barnacle larval adherence and their associated toxicity.

Balanus amphitrite = test: as above; assay type: in vivo; conditions: for EC50: Amphibalanus amphitrite, read-out: EC50 (inhibition of barnacle larval settlement); for LC50/EC50: Balanus amphitrite, ratio >15 indicating low toxicity
Protocol: as §1

[2] = test system: Balanus amphitrite cyprid larvae; test: Rescue (resuscitation) assay of Balanus amphitrite cyprid larvae; assay type: in vivo; conditions: 1 μg/mL for 24 h, rinsed, settlement observed after 48 h
[3] = Zebrafish embryo toxicity assay; assay type: in vivo; conditions: in vivo, other: embryos immersed in compound solution in wells, 48 h exposure, read-out: LC50 at 48 h post-fertilization
Protocol: (§2) The zebrafish embryo toxicity assay was conducted according to the method described by Huang et al., with slight modifications. Test compounds were dissolved in 0.5% DMSO to prepare a concentration series (0.1, 1, 5, 25, 50 μg/mL), which was then dispensed into 24-well plates. Fifteen cleavage-stage embryos were added to each well. The plates were incubated at 28 °C, and embryonic development was evaluated under a stereomicroscope after 48 h of exposure.

zebrafish embryos = test: Zebrafish embryo toxicity assay; assay type: in vivo; conditions: for phenotype of zebrafish embryos versus control: 48 h
Protocol: as §2

[4] = Balanus amphitrite cyprid larvae, 48 h incubation

Compound | LC50 at 48 h [1] [µg/mL] | EC50 (Balanus amphitrite; [4]) [µg/mL] | LC50/EC50 (Balanus amphitrite) | also measured
COC(=O)C12OCC34C(CC5C(C)=C(O)C(=O)CC5(C)C3C(O)C1O)OC(=O)C(OC(=O)CCCCBr)C24 (stereo not shown) [Compound 1, 15-O-(5′-Bromovaleryl)-Bruceolide] | 0.842 ± 0.112 (≈ 1.4 µM) | 0.523 ± 0.123 (≈ 0.87 µM) | – | –
COC(=O)C12OCC34C(CC5C(C)=C(O)C(=O)CC5(C)C3C(O)C1O)OC(=O)C(OC(=O)CCCCCl)C24 (stereo not shown) [Compound 2, 15-O-(5′-Chlorovaleryl)-Bruceolide] | 1.12 ± 0.144 (≈ 2.02 µM) | 0.417 ± 0.185 (≈ 0.748 µM) | 2.6978 | –
COC(=O)C12OCC34C(CC5C(C)=C(O)C(=O)CC5(C)C3C(O)C1O)OC(=O)C(OC(=O)CCCCl)C24 (stereo not shown) [Compound 3, 15-O-(4′-Chlorobutanoyl)-Bruceolide] | 6.24 ± 2.62 (≈ 11.5 µM) | 0.147 ± 0.0332 (≈ 0.272 µM) | 42.2922 | recovery rate [2]: high recovery rates; resuscitation rate [2]: 71.11%; LC50 at 48 h [3]: 15.8 µg/mL (≈ 29 µM); phenotype of zebrafish embryos versus control (zebrafish embryos): no significant phenotypic differences
COC(=O)C12OCC34C(CC5C(C)=C(O)C(=O)CC5(C)C3C(O)C1O)OC(=O)C(OC(=O)c1ccc(Cl)cc1)C24 (stereo not shown) [Compound 4] | 0.741 ± 0.082 (≈ 1.28 µM) | 0.353 ± 0.101 (≈ 0.611 µM) | 2.1018 | –
COC(=O)C12OCC34C(CC5C(C)=C(O)C(=O)CC5(C)C3C(O)C1O)OC(=O)C(OC(=O)c1ccc(Cl)s1)C24 (stereo not shown) [Compound 5] | 6.14 ± 0.173 (≈ 10.5 µM) | 2.02 ± 0.237 (≈ 3.47 µM) | 3.0330 | –
COC(=O)C12OCC34C(CC5C(C)=C(O)C(=O)CC5(C)C3C(O)C1O)OC(=O)C(OC(=O)c1ccc(Cl)nc1)C24 (stereo not shown) [Compound 6] | 5.77 ± 2.54 (≈ 9.98 µM) | 0.34 ± 0.104 (≈ 0.589 µM) | 16.9633 | recovery rate [2]: high recovery rates; LC50 at 48 h [3]: 8.18 µg/mL (≈ 14.2 µM); phenotype of zebrafish embryos versus control (zebrafish embryos): no significant phenotypic differences
COC(=O)C12OCC34C(CC5C(C)=C(O)C(=O)CC5(C)C3C(O)C1O)OC(=O)C(OC(=O)Cc1cccc(F)c1)C24 (stereo not shown) [Compound 8, 15-O-(5′-Fluorophenylacetyl)-Bruceolide] | 5.91 ± 1.03 (≈ 10.3 µM) | 1.12 ± 0.103 (≈ 1.95 µM) | 5.2723 | –
COC(=O)C12OCC34C(CC5C(C)=C(O)C(=O)CC5(C)C3C(O)C1O)OC(=O)C(OC(=O)CCC#N)C24 (stereo not shown) [Compound 12, 15-O-(3′-Cyanopropanoyl)-Bruceolide] | 2.8 ± 0.122 (≈ 5.39 µM) | 1.39 ± 0.135 (≈ 2.67 µM) | 2.0219 | –
COC(=O)C12OCC34C(CC5C(C)=C(O)C(=O)CC5(C)C3C(O)C1O)OC(=O)C(OC(=O)Cc1cccc(C#N)c1)C24 (stereo not shown) [Compound 13, 15-O-(5′-Cyano-Phenyl-3′-Acetyl)-Bruceolide] | 6.61 ± 0.112 (≈ 11.4 µM) | 1.84 ± 0.179 (≈ 3.17 µM) | 3.5854 | –
COC(=O)C12OCC34C(CC5C(C)=C(O)C(=O)CC5(C)C3C(O)C1O)OC(=O)C(OC(=O)c1ccc(C(C)=O)s1)C24 (stereo not shown) [Compound 14, 15-O-(3′-Acetyl-Thiophen-6′-Carbonyl)-Bruceolide] | 7.92 ± 0.243 (≈ 13.4 µM) | 2.15 ± 0.727 (≈ 3.63 µM) | 3.6926 | –
CCCCCCCCn1sc(Cl)c(Cl)c1=O [SeaNine 211, reference compound] | – | – | – | EC50 (inhibition of barnacle larval settlement) (Balanus amphitrite; [4]): 1.9363 ± 0.4128 µg/mL; LC50 (larval mortality) (Balanus amphitrite; [4]): 33.9306 ± 2.0625 µg/mL (≈ 120 µM); LC50 at 48 h post-fertilization (zebrafish embryos; 48 h exposure): 7.2236 µg/mL (≈ 25.6 µM)
brusatol [B1, reference compound] | – | – | – | EC50 (inhibition of barnacle larval settlement) (Balanus amphitrite; [4]): 2.7826 ± 0.6874 µg/mL

Reference: article PMC11765156 (International Journal of Molecular Sciences, 2025)
